# Laboratory results published in patent US9359311B2, “Substituted aromatic oligomers” (NEUROSCIOS GMBH, priority 2011, dated 2016).
# Entries after “also recorded” stand apart in the source; their conditions may differ.
# Legend:
# [1] = target: T1, Human Aβ38, Aβ40 and Aβ42 (Homo sapiens, UniProt P05067); assay: Human Aβ38, Aβ40 and Aβ42 in CSF of hAPPSL Tg mice after 90 days treatment (immunosorbent assay); assay type: in vivo, mouse; settings: twice daily i.p.
# T1 construct: from tissue; host or cells: CSF and left brain hemisphere (SDS fraction) of transgenic hAPPSL mice
# Description: (§1) Vehicle: Phosphate Buffered Saline (PBS; 6.7 mM PO4, 155 mM NaCl, pH=7.3-7.5) (BioWhittaker PBS from Lonza).
# (§2) Test item (T.I.): p-FTAA and P9707_003 diluted in vehicle from stock solution in deionized water (10 mg/ml).
# (§3) Tg hAPPSL: Transgenic hAPPSL mice over-expressing hAPP(751) under the control of the murine Thy-1 promoter with a C57BL/6xDBA background.
# (§4) Human Aβ38, Aβ40 and Aβ42 were determined in homogenates of the left brain hemispheres and in CSF samples of all Tg animals by an immunosorbent assay from Mesoscale Discovery
# 48 hAPP Tg mice plus 4 reserves allocated to 4 different treatment groups were treated with either vehicle only (control), p-FTAA or P9707_003. As an additional control, 12 nTg littermates of the hAPPSL mice (plus 1 reserve) were treated with vehicle only. Starting at 6.5 months of age, female hAPPSL mice were treated with vehicle only, p-FTAA (dosage: 1 or 10 mg/kg/day) or P9707_003 (dosage: 10 mg/kg/day) for 90 days. The Test Items (T.I.s) were administered in Vehicle. Compound and vehicle were administered twice daily i.p. for 90 days. Tg hAPPSL mice with a C57BL/6xDBA background and corresponding nTg littermates at an age of 6.5 months (±2 weeks) were randomly assigned to the treatment groups.
# (§5) In the brain homogenate SDS fraction and in CSF of each Tg mouse, human Aβ38, Aβ40 and Aβ42 levels were measured with a Aβ-kit from Mesoscale Discovery. Aβ levels were evaluated in comparison to a peptide standard as pg/mg brain (wet weight) or pg/ml CSF.
# Descriptive statistical analysis was performed on all evaluated parameters. All data were represented as mean±standard error of mean (SEM). Grubb's test was used to detect outliers. Normality distribution of the values was tested with Kolmogorov Smirnov normality distribution test. Group differences between all Tg groups were calculated by a parametric ANOVA followed by a Bonferroni post test.
# [2] = target: T1, Human Aβ38, Aβ40 and Aβ42; assay: Human Aβ38, Aβ40 and Aβ42 in SDS brain homogenate fraction of hAPPSL Tg mice after 90 days treatment; assay type: in vivo, mouse; settings: twice daily i.p., p-FTAA 1 or 10 mg/kg/day, P9707_003 10 mg/kg/day
# Description: as §1, §2, §3, §4
# 48 hAPP Tg mice plus 4 reserves allocated to 4 different treatment groups were treated with either vehicle only (control), p-FTAA or P9707_003. As an additional control, 12 nTg littermates of the hAPPSL mice (plus 1 reserve) were treated with vehicle only. Starting at 6.5 months of age, female hAPPSL mice were treated with vehicle only, p-FTAA (dosage: 1 or 10 mg/kg/day) or P9707_003 (dosage: 10 mg/kg/day) for 90 days. […]
# as §5
# Descriptive statistical analysis was performed on all evaluated parameters. […] Group differences between all Tg groups were calculated by a parametric ANOVA followed by a Bonferroni post test.
# T1 sequence (P05067 672-713 limits assumed): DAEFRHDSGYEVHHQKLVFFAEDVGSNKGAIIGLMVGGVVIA
smiles,measurement,setting,value
"O=C(O)Cc1ccsc1-c1ccc(-c2sc(-c3ccc(-c4cc(CC(=O)O)c(-c5ccc(-c6sccc6CC(=O)O)s5)s4)s3)cc2CC(=O)O)s1 [Example 1, 2-(2-{5-[3-(Carboxymethyl)-5-{5-[4-(carboxymethyl)-5-{5-[3-(carboxymethyl)thiophen-2-yl]thiophen-2-yl}thiophen-2-yl]thiophen-2-yl}thiophen-2-yl]thiophen-2-yl}thiophen-3-yl)acetic acid]","Mean Aβ levels in CSF, relative to vehicle control (PBS control)","[1]; 10 mg/kg/day, female hAPPSL Tg mice, Aβ38, Aβ40, Aβ42, % of vehicle control",about 60%
same,CSF Aβ levels,"[1]; hAPPSL Tg mice, p-FTAA 1 or 10 mg/kg/day, P9707_003 10 mg/kg/day",decreased
same,"aggregated Aβ38, Aβ40 and Aβ42 in SDS fraction of brain homogenate",[2],significant decrease; also recorded: reduced
